From ChEMBL document CHEMBL3044672, “N9- and N7-(Chloromethyl Phenymethyl)Chloropurine Derivatives from , '-Dichloroxylenes: Synthesis and Anticancer Activity” (2005)

Experiments:
Assay type in all cases: functional
SN12C = experiment: Cytotoxicity against Homo sapiens (human) SN12C cells after 48 hr by sulforhodamine B assay
A549 = experiment: Cytotoxicity against Homo sapiens (human) A549 cells after 48 hr by sulforhodamine B assay; settings: A549, 48 h
NCI-H322M = experiment: Cytotoxicity against Homo sapiens (human) NCI-H322M cells after 48 hr by sulforhodamine B assay
HCC 2998 = experiment: Cytotoxicity against Homo sapiens (human) HCC2998 cells after 48 hr by sulforhodamine B assay; settings: HCC 2998, 48 h
COLO 205 = experiment: Cytotoxicity against Homo sapiens (human) COLO205 cells after 48 hr by sulforhodamine B assay; settings: COLO 205, 48 h
HOP-62 = experiment: Cytotoxicity against Homo sapiens (human) HOP62 cells after 48 hr by sulforhodamine B assay; settings: HOP-62, 48 h
NCI-H23 = experiment: Cytotoxicity against Homo sapiens (human) NCI-H23 cells after 48 hr by sulforhodamine B assay; settings: NCI-H23, 48 h
SF-268 = experiment: Cytotoxicity against Homo sapiens (human) SF268 cells assessed as cell growth at 10^-4 M after 48 hr by […] assay; settings: SF-268, 48 h, read-out: Activity
U-251 = experiment: Cytotoxicity against Homo sapiens (human) U251 cells after 48 hr by sulforhodamine B assay; settings: U-251, 48 h
RXF 393 = experiment: Cytotoxicity against Homo sapiens (human) RXF393 cells after 48 hr by sulforhodamine B assay; settings: RXF 393, 48 h
IGROV-1 = experiment: Cytotoxicity against Homo sapiens (human) IGROV1 cells after 48 hr by sulforhodamine B assay; settings: IGROV-1, 48 h
PC-3 = experiment: Cytotoxicity against Homo sapiens (human) PC3 cells after 48 hr by sulforhodamine B assay; settings: PC-3, 48 h
NCI-H522 = experiment: Cytotoxicity against Homo sapiens (human) NCI-H522 cells after 48 hr by sulforhodamine B assay; settings: NCI-H522, 48 h
MOLT-4 = experiment: Cytotoxicity against Homo sapiens (human) MOLT4 cells after 48 hr by sulforhodamine B assay; settings: MOLT-4, 48 h
OVCAR-3 = experiment: Cytotoxicity against Homo sapiens (human) OVCAR3 cells after 48 hr by sulforhodamine B assay; settings: OVCAR-3, 48 h
MDA-MB-435 = experiment: Cytotoxicity against Homo sapiens (human) MDA-MB-435 cells after 48 hr by sulforhodamine B assay; settings: MDA-MB-435, 48 h
SK-MEL-5 = experiment: Cytotoxicity against Homo sapiens (human) SK-MEL-5 cells after 48 hr by sulforhodamine B assay; settings: SK-MEL-5, 48 h
OVCAR-4 = experiment: Cytotoxicity against Homo sapiens (human) OVCAR4 cells after 48 hr by sulforhodamine B assay; settings: OVCAR-4, 48 h
MDA-MB-231 = experiment: Cytotoxicity against Homo sapiens (human) MDA-MB-231 cells after 48 hr by sulforhodamine B assay; settings: MDA-MB-231, 48 h
EKVX = experiment: Cytotoxicity against Homo sapiens (human) EKVX cells after 48 hr by sulforhodamine B assay
CAKI-1 = experiment: Cytotoxicity against Homo sapiens (human) Caki1 cells after 48 hr by sulforhodamine B assay; settings: CAKI-1, 48 h
SK-MEL-2 = experiment: Cytotoxicity against Homo sapiens (human) SK-MEL-2 cells after 48 hr by sulforhodamine B assay; settings: SK-MEL-2, 48 h
UACC-257 = experiment: Cytotoxicity against Homo sapiens (human) UACC257 cells after 48 hr by sulforhodamine B assay; settings: UACC-257, 48 h
NCI-H226 = experiment: Cytotoxicity against Homo sapiens (human) NCI-H226 cells after 48 hr by sulforhodamine B assay; settings: NCI-H226, 48 h
HT-29 = experiment: Cytotoxicity against Homo sapiens (human) HT-29 cells after 48 hr by sulforhodamine B assay; settings: HT-29, 48 h
K562 = experiment: Cytotoxicity against Homo sapiens (human) K562 cells after 48 hr by sulforhodamine B assay; settings: K562, 48 h
UACC-62 = experiment: Cytotoxicity against Homo sapiens (human) UACC62 cells after 48 hr by sulforhodamine B assay; settings: UACC-62, 48 h
HCT-116 = experiment: Cytotoxicity against Homo sapiens (human) HCT116 cells after 48 hr by sulforhodamine B assay; settings: HCT-116, 48 h
KM12 = experiment: Cytotoxicity against Homo sapiens (human) KM12 cells after 48 hr by sulforhodamine B assay; settings: KM12, 48 h
SF-539 = experiment: Cytotoxicity against Homo sapiens (human) SF539 cells after 48 hr by sulforhodamine B assay; settings: SF-539, 48 h
[1] = Cytotoxicity against Homo sapiens (human) NCI-ADR-RES cells after 48 hr by sulforhodamine B assay
[2] = read-out: LC50 (the source's name)

ClCc1ccccc1Cn1cnc2c(Cl)ncnc21
GI50 (SN12C): 3.38 µM | LC50 (50% lethal concentration) (SN12C): 95.5 µM | TGI (SN12C): 8.71 µM | GI50 (A549): 7.76 µM | TGI (A549): 25.7 µM | CC50 (A549; [2]): 75.9 µM | GI50 (NCI-H322M): 3.98 µM | TGI (NCI-H322M): 13.8 µM | CC50 (NCI-H322M; [2]): 43.6 µM | GI50 (HCC 2998): 1.66 µM | TGI (HCC 2998): 3.54 µM | CC50 (HCC 2998; [2]): 7.41 µM | GI50 (COLO 205): 3.89 µM | TGI (COLO 205): > 100 µM | CC50 (COLO 205; [2]): > 100 µM | GI50 (HOP-62): 2.51 µM | TGI (HOP-62): 6.02 µM | CC50 (HOP-62; [2]): 19.9 µM | GI50 (NCI-H23): 2.04 µM | TGI (NCI-H23): 4.36 µM | CC50 (NCI-H23; [2]): 9.33 µM | growth at 100 µM (SF-268): 0% | GI50 (U-251): 2.63 µM | LC50 (concentration killing 50% of cells) (U-251): 61.7 µM | TGI (U-251): 6.16 µM | GI50 (RXF 393): 0.44 µM | TGI (RXF 393): 2.34 µM | CC50 (RXF 393; [2]): 7.41 µM | GI50 (IGROV-1): 3.16 µM | LC50 (IGROV-1): 55 µM | TGI (IGROV-1): 8.91 µM | GI50 (PC-3): 3.02 µM | LC50 (concentration causing 50% cell kill) (PC-3): 53.7 µM | TGI (PC-3): 10.5 µM | GI50 (NCI-H522): 1.82 µM | TGI (NCI-H522): 7.24 µM | CC50 (NCI-H522; [2]): > 100 µM | GI50 (MOLT-4): 1.58 µM | TGI (MOLT-4): 5.24 µM | CC50 (MOLT-4; [2]): > 100 µM | GI50 (OVCAR-3): 1.41 µM | LC50 (OVCAR-3): 8.91 µM | TGI (OVCAR-3): 3.54 µM | GI50 (MDA-MB-435): 3.02 µM | LC50 (MDA-MB-435): 36.3 µM | TGI (MDA-MB-435): 9.55 µM | GI50 (SK-MEL-5): 1.41 µM | LC50 (SK-MEL-5): 5.88 µM | TGI (SK-MEL-5): 2.88 µM | GI50 (OVCAR-4): 3.38 µM | LC50 (concentration killing 50% of cells) (OVCAR-4): 45.7 µM | TGI (OVCAR-4): 12.3 µM | GI50 (MDA-MB-231): 3.02 µM | LC50 (MDA-MB-231): 45.7 µM | TGI (MDA-MB-231): 7.41 µM | GI50 (EKVX): 3.09 µM | TGI (EKVX): 11 µM | CC50 (EKVX; [2]): 37.1 µM | GI50 (CAKI-1): 1.82 µM | TGI (CAKI-1): 4.17 µM | CC50 (CAKI-1; [2]): 9.33 µM | GI50 (SK-MEL-2): 2.75 µM | LC50 (concentration killing 50% of cells) (SK-MEL-2): > 100 µM | TGI (SK-MEL-2): 18.2 µM | GI50 (UACC-257): 10.7 µM | LC50 (concentration killing 50% of cells) (UACC-257): 66.1 µM | TGI (UACC-257): 26.3 µM | GI50 (NCI-H226): 4.57 µM | TGI (NCI-H226): 12.6 µM | CC50 (NCI-H226; [2]): 38.9 µM | GI50 (HT-29): 3.54 µM | TGI (HT-29): > 100 µM | CC50 (HT-29; [2]): > 100 µM | GI50 (K562): 1.2 µM | TGI (K562): 5.12 µM | CC50 (K562; [2]): > 100 µM | GI50 (UACC-62): 3.31 µM | LC50 (concentration causing 50% net cell kill) (UACC-62): 28.2 µM | TGI (UACC-62): 6.6 µM | GI50 (HCT-116): 1.9 µM | TGI (HCT-116): 3.71 µM | CC50 (HCT-116; [2]): 7.08 µM | GI50 (KM12): 16.6 µM | TGI (KM12): 33.1 µM | CC50 (KM12; [2]): 66.1 µM | GI50 (SF-539): 10.7 µM | LC50 (concentration killing 50% of cells) (SF-539): 55 µM | TGI (SF-539): 24 µM | GI50 [1]: 2.18 µM | LC50 (concentration killing 50% of cells) [1]: 10.5 µM | TGI [1]: 4.67 µM
